Data taken from US8835438B2, “Method of treating memory/learning dysfunctions caused by schizophrenia with lurasidone” (Sumitomo Dainippon Pharma Co., Ltd., priority 2004, dated 2014).
Entries after “also recorded” stand apart in the source; their conditions may differ. Marks after values point to notes of the source that are not given here.

Assays:
[1] = tested on: memory/learning dysfunctions in the passive avoidance response; assay: Passive avoidance response test, drug administered alone without MK-801; assay type: in vivo, Wistar male rats; conditions: drug alone without MK-801, passive avoidance response, rats
Experimental: Then, 10 seconds later, a slide door set at the border between the dark box and the light box was opened. Due to the habits of the rats, once the rats entered into the dark box, the slide door was quickly closed. At three seconds after entering into the dark box, an electroconvulsive shock ([…], for 3 seconds) was given to the rats. The period between the time just after the slide door was opened and the time at which the rats entered into the dark box was measured as a step-through latency. […] On Day 2 of the experiment, the testing session was carried out about 24 hours after the training session. […] The procedures of the testing session were carried out in the same manner to the training session except that no electroconvulsive shock was given. The step-through latency at the testing session was measured up to 300 seconds, and the step-through latency over 300 seconds was regarded as 300 seconds. […] The statistical analysis of the % of animals avoiding was done by x^2 test with Bonferroni's correction. The animals were used in a group of 10 to 25 animals per group, and the data was expressed by percentage.

[2] = tested on: MK-801-induced memory/learning dysfunctions; assay: Step-through passive avoidance response test, MK-801-induced memory/learning dysfunctions; assay type: in vivo, Wistar male rats
Experimental: Wistar male rats (7 weeks old) were used. […] Serotonin 5-HT 1A receptor antagonist WAY-100635 or noradrenaline a2 receptor antagonist 1-PP was dissolved in a physiological saline solution (Otsuka Pharmaceutical Co., Ltd.) and used as a test compound. As an NMDA type receptor antagonist, MK-801 hydrogen maleate (SIGMA-ALDRICH M-107) was dissolved in a physiological saline solution (Otsuka Pharmaceutical Co., Ltd.). […] For the evaluation of state-dependency of MC-801, MK-801 was administered before the training session, and a physiological saline solution was administered before the testing session instead. The dosing value thereof was 5 ml/kg for each.
The step-through type passive avoidance response test was carried out in the following manners with the use of an apparatus consisting of a light-dark box, a slide door dividing the light-dark box and a shock generator (manufactured by O'hara & Co., Ltd., PA-2030A, PA-3001A) as an experimental apparatus. Namely, on Day 1 of the experiment, after a test compound and MK-801 were administered, the rats were put into the light box of the experimental apparatus where the back of each rat was directed to the dark box. Then, 10 seconds later, a slide door set at the border between the dark box and the light box was opened. Due to the habits of the rats, once the rats entered into the dark box, the slide door was quickly closed. At three seconds after entering into the dark box, an electroconvulsive shock ([…], for 3 seconds) was given to the rats. The period between the time just after the slide door was opened and the time at which the rats entered into the dark box was measured as a step-through latency. […] On Day 2 of the experiment, the testing session was carried out about 24 hours after the training session. Thirty minutes prior to the testing session, MK-801 or a vehicle thereof, i.e., a physiological saline solution, was subcutaneously administered to the rats. The procedures of the testing session were carried out in the same manner to the training session except that no electroconvulsive shock was given. The step-through latency at the testing session was measured up to 300 seconds, and the step-through latency over 300 seconds was regarded as 300 seconds. […] The statistical analysis of the % of animals avoiding was done by x^2 test with Bonferroni's correction. The animals were used in a group of 10 to 25 animals per group, and the data was expressed by percentage.

[3] = tested on: methamphetamine-induced hyperponesis; conditions: rats; reflects anti-psychotic activity; cited from earlier work
[4] = MK-801 administered in both training and testing sessions
[5] = MK-801 administered only in the training session
[6] = MK-801 prior to both training and testing sessions, MK-801 + drug 0.3 mg/kg p.o.
[7] = MK-801 prior to both training and testing sessions, MK-801 + drug 1 mg/kg p.o.
[8] = MK-801 prior to both training and testing sessions, MK-801 + drug 3 mg/kg p.o.
[9] = MK-801 prior to both training and testing sessions, MK-801 + drug 10 mg/kg p.o.
[10] = MK-801 prior to training session only, MK-801 + drug 3 mg/kg p.o.
[11] = MK-801 prior to both training and testing sessions, MK-801 + drug 0.1 mg/kg p.o.

Row | Compound | Minimum dose to induce memory dysfunction by single application [1] | drug efficacy on memory dysfunction (in words) [2, 4] | % of animals avoiding [2, 6] | % of animals avoiding [2, 7] | % of animals avoiding [2, 8] | % of animals avoiding [2, 9] | also measured
1 | O=C1[C@@H]2[C@H]3CC[C@H](C3)[C@@H]2C(=O)N1C[C@@H]1CCCC[C@H]1CN1CCN(c2nsc3ccccc23)CC1 [Lurasidone, lurasidone] | >30 mg/kg, p.o | memory/learning improving efficacy is recognized; also recorded: a significant improving activity was observed | 40* % | 35* % | 75* % | 70* % | drug efficacy on memory dysfunction (in words) [2, 5]: no drug efficacy; % of animals avoiding ([2]; MK-801 prior to training session only, MK-801 + drug 0.3 mg/kg p.o.): 20%; % of animals avoiding ([2]; MK-801 prior to training session only, MK-801 + drug 1 mg/kg p.o.): 20%; % of animals avoiding [2, 10]: 30%; % of animals avoiding ([2]; MK-801 prior to training session only, MK-801 + drug 10 mg/kg p.o.): 20%
2 | Cc1cc2c(s1)Nc1ccccc1N=C2N1CCN(C)CC1 [Olanzapine, olanzapine] |  |  | 15% | 20% | 20% | 10% | 
3 | Cl.Cl.c1cnc(N2CCNCC2)nc1 [1-PP, 1-(2-pyrimidyl)piperazine dihydrochloride] |  |  |  | 47* % | 67* % |  | drug efficacy on memory dysfunction (in words) ([2]; MK-801 administered in both training and testing sessions, dihydrochloride): memory/learning improving efficacy is recognized; also recorded: a significant improving activity was observed; drug efficacy on memory dysfunction (in words) [2, 5]: no drug efficacy; % of animals avoiding [2, 10]: 8%
4 | C[C@]12N[C@H](Cc3ccccc31)c1ccccc12 [MK-801] |  |  |  |  |  |  | % of animals avoiding, group treated with MK-801 ([2]; MK-801 0.05 mg/kg s.c. alone, administered prior to training session only): 0%; step-through latency (in words) ([2]; MK-801 before training session and saline before testing session, compared with MK-801 in both sessions): nearly equal decrease in the step-through latency
5 | O=C1CCc2ccc(OCCCCN3CCN(c4cccc(Cl)c4Cl)CC3)cc2N1 [Aripiprazole, aripiprazole] | 10 mg/kg, p.o | no drug efficacy was observed |  | 16% | 16% |  | 
6 | COc1ccccc1N1CCN(CCN(C(=O)C2CCCCC2)c2ccccn2)CC1 [WAY-1000635] |  |  | 30% | 40* % | 30% |  | drug efficacy on memory dysfunction (in words) ([2]; MK-801 administered in both training and testing sessions, listed as WAY-100635): a significant improving activity was observed; drug efficacy on memory dysfunction (in words) ([2]; MK-801 administered in both training and testing sessions, listed as serotonin 5-HT 1A receptor antagonist): memory/learning improving efficacy is recognized
7 | Cc1nc2n(c(=O)c1CCN1CCC(c3noc4cc(F)ccc34)CC1)CCCC2 [Risperidone, risperidone] | 3 mg/kg, p.o | memory/learning improving efficacy is recognized | 20% | 28% | 10% |  | % of animals avoiding [2, 11]: 20%
8 | CN1CCN(C2=Nc3cc(Cl)ccc3Nc3ccccc32)CC1 [Clozapine, clozapine] | 10 mg/kg, p.o |  | 44* % | 36* % | 20% | 10% | 
9 | OCCOCCN1CCN(C2=Nc3ccccc3Sc3ccccc32)CC1 [Quetiapine, quetiapine] | 30 mg/kg, p.o | memory/learning improving efficacy is recognized; also recorded: a significant improving activity was observed | 10% | 20% | 30% | 50* % | dose to inhibit 50% of methamphetamine-induced hyperponesis (ED50) [3]: about 100 mg/kg, p.o.
10 | O=C(CCCN1CCC(O)(c2ccc(Cl)cc2)CC1)c1ccc(F)cc1 [Haloperidol] | 10 mg/kg, p.o | no drug efficacy was observed | 5% | 15% | 10% |  | % of animals avoiding [2, 11]: 0%
